Measured values: US20240182893A1, “INHIBITION OF FGR REDUCES FIBROSIS” (UNIVERSITY OF PITTSBURGH-OF THE COMMONWEALTH SYSTEM OF …, priority 2021, published 2024)
“And” between values parts separate entries of the source, which are not always exact repeats. Identical values can stand only once. “Also recorded” adds a separate entry of the source.

Columns and labels:
other similar kinases [1] = test: Inhibition of other similar kinases; format: biochemical
gfp+ bone marrow cells = test: Transwell cell migration assay, gfp+ bone marrow cells towards senescent cells (3-micron filter); format: cell-based, mouse; settings: TL02-59 10 nM, 48 h, FIG. 45A, C, D
Description: FIG. 45A-FIG. 45F. […] FIG. 45A—The tdTOMp16+ cells either irradiated or non-irradiated were sorted by FACS for either tdTOM+ or tdTOM− cells, and each population was placed in the bottom chamber of each culture, well separated by a 3-micron filter. Gfp+ bone marrow cells were placed on the top chamber of each well and migration assay was carried out (3-micron membrane). The Fgr inhibitor TL02-59 (10 nM) (Shen K et al. Sci Signal 11(553): eaat5916, 2018) or RS 504393 (10 μM), a Ccl2 inhibitor, which is a CCR2 chemokine receptor antagonist, was added to cultures 24 h later. The migration of gfp+ bone marrow cells from the top chamber through the 3-micron filter to the bottom chamber was imaged and total gfp+ cells were counted. FIG. 45B—Image of gfp+ migrating cells through the filter at 24 h for each condition (×100). At 48 h, emigrated gfp+ cells in the bottom well were counted by FACS. After 48 h, migrating total. (FIG. 45C) gfp+ cells, and (FIG. 45D) gfp+ CD45+ cells were counted by FACS. […] Cell migration from the top wells to the bottom wells was evaluated by imaging and by (FIG. 45F) FACS analysis. (n=3, ****p=0.0001). p-Values were calculated by the t-test.
In vitro transwell experiments. […] The migration of gfp+ cells through the filter to the bottom compartment was measured by imaging the bottom wells and counting gfp+ cells relative to numbers of senescent TOM+ (red) cells. […]

other similar kinases [2] = settings: cited from earlier work
Fgr = Fgr (Homo sapiens, UniProt P09769); settings: cited from earlier work
[3] = test system: tdTOMp16+ red senescent cells; test: Chemokine array of media from sorted senescent tdTOMp16+ cells; format: cell-based, mouse; settings: TL02-59 10 nM, 72 hours, FIG. 50
Description: FIG. 50. […] Using chemokine array relative amounts of chemokines secreted in the media was measured. (n=2, *, p<0.05, p values were calculated using unpaired t-test).

[4] = mice; cited from earlier work
[5] = test system: mouse model of radiation-induced pulmonary fibrosis; test: Mouse model of radiation-induced pulmonary fibrosis (18 Gy), qPCR and staining of lungs; format: in vivo
Description: (§1) FIG. 47. […] Relative mRNA expression of profibrotic genes (Tgf-β, Ctgf, Collagen 1a1, Collagen 3 and Collagen 4), senescence biomarkers (p16 and p21) and tyrosine kinase Fgr was evaluated by qPCR from one lobe of mouse lungs in control, irradiated and treated with Fgr inhibitor TL02-59 post irradiation. Briefly, Mice were irradiated (18 Gy), and TL02-59 treated (10 mg/kg), 3/week at day 75 for 4 weeks. (n=4-13). Statistics was performed, and individual p values were calculated by unpaired t-test.
FIG. 48. Expression of Fgr and p16 from mouse lungs in control, irradiated, and treated with Fgr inhibitor TL02-59 post irradiation. […] Insets on the right from each group were magnified for clarity.
as §1, with “(n=4-13),” for “(n=4-13).”

Fgr, sequence (P09769 whole entry, species assumed): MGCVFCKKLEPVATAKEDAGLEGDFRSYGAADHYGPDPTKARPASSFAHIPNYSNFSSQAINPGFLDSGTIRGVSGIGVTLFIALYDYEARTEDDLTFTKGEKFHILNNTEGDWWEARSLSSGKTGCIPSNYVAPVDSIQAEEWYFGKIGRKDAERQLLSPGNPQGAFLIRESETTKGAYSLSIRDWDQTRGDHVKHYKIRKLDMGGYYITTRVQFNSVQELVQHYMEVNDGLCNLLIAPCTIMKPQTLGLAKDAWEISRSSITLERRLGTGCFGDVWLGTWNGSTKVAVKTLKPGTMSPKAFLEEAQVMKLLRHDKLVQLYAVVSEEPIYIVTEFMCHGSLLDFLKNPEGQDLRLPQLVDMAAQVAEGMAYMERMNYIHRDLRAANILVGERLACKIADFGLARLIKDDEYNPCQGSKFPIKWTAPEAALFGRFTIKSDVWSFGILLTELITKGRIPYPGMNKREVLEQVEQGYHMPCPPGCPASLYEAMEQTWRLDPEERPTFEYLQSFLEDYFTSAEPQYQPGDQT

CCN1CCN(Cc2ccc(NC(=O)c3ccc(C)c(Oc4ncnc5cc(OC)c(OC)cc45)c3)cc2C(F)(F)F)CC1 [TL02-59]
fold greater dose required for inhibition of other similar kinases vs Fgr (other similar kinases [1]): 10 to 100 fold and 10-to-100 fold | migration of gfp+ monocyte/macrophages towards senescent cells from irradiated tdTOMp16+ stromal cell line (gfp+ bone marrow cells): abrogated monocyte/macrophages recruitment; also recorded: significantly reduced the migration; also recorded: inhibited; also recorded: prevents migration | concentration required for inhibition of other similar kinases (other similar kinases [2]): 100 to 1000 nM | kinases inhibited at 10 nM concentration (Fgr; 10 nM): inhibits only Fgr | concentration with complete inhibition of Fgr (Fgr): above 10 nM | concentration with partial inhibition of Fgr (Fgr): 0.1 to 1 nM | selectivity for Fgr over other kinases (Fgr): remarkably selective for Fgr; also recorded: Fgr specific in the nanomolar concentration | secretion of senescence associated secretory chemokines (chemokine array) [3]: reduces secretion of senescence associated secretory chemokines | oral bioavailability [4]: orally bioavailable | plasma half-life [4]: 6 h | relative mRNA expression of profibrotic genes (Tgf-β, Ctgf, Collagen 1a1, Collagen 3, Collagen 4), senescence biomarkers (p16, p21) and Fgr in lungs (qPCR) ([5]; 18 Gy, TL02-59 10 mg/kg, 3/week at day 75 for 4 weeks, FIG. 47): reduces profibrotic and biomarkers of senescence | expression of Fgr and p16 proteins in mouse lungs (images) ([5]; irradiated, TL02-59 post irradiation, FIG. 48): led to a reduction of both the proteins
